Values quoted from earlier work, collected in patent US10849867B2, “Methods and compositions for treating conditions associated with an abnormal inflammatory response” (First Wave Bio, Inc., priority 2015, dated 2020).

Conditions: at 20° C.; cited from earlier work

Compound: NCCO.O=C(Nc1ccc([N+](=O)[O-])cc1Cl)c1cc(Cl)ccc1O [ethanol amine salt, 5-chloro-N-(2-chloro-4-nitrophenyl)-2-hydroxybenzamide with 2-aminoethanol (1.1)]
- dissolves in distilled water: 180 to 280 mg/L
